Assay results as given in PubChem BioAssay AID256 (DTP/NCI, 2004).
Where “and” joins values, the source holds several entries; their conditions need not be identical. Equal entries are not always repeated. Inconclusive results and toxic doses are left out. Rule for the calls: active = survival T/C of 150% or more; inactive = T/C below 125% in these data.

Test system: CD2F1 mice, L1210 leukemia ip, survival T/C
Assay: NCI In Vivo Anticancer Drug Screen. Data for tumor model L1210 Leukemia (intraperitoneal) in CD2F1 (CDF1) mice
Conditions: endpoint: mean survival time, higher = longer survival
Method in brief: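 In this screen, transplantable tumors were grown in mice given either the compound or its vehicle. Results were expressed as the treated measurement relative to the control measurement.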

[1] = dose: 100.0 mg/kg/injection, schedule: Q01DX009 (ip), vehicle: saline with Tween-80
[2] = dose: 100.0 mg/kg/injection, schedule: Q04DX003 (ip), vehicle: saline with Tween-80
[3] = dose: 200.0 mg/kg/injection, schedule: Q04DX003 (ip), vehicle: saline with Tween-80
[4] = dose: 400.0 mg/kg/injection, schedule: Q01DX009 (ip), vehicle: saline with Tween-80
[5] = dose: 400.0 mg/kg/injection, schedule: Q04DX003 (ip), vehicle: saline with Tween-80
[6] = dose: 200.0 mg/kg/injection, schedule: Q01DX009 (ip), vehicle: saline with Tween-80
[7] = dose: 50.0 mg/kg/injection, schedule: Q01DX009 (ip), vehicle: saline with Tween-80
[8] = dose: 100.0 mg/kg/injection, schedule: Q01DX001 (ip), vehicle: saline with Tween-80
[9] = dose: 100.0 mg/kg/injection, schedule: Q04DX002 (ip), vehicle: saline with Tween-80
[10] = dose: 200.0 mg/kg/injection, schedule: Q01DX001 (ip), vehicle: saline with Tween-80
[11] = dose: 200.0 mg/kg/injection, schedule: Q04DX002 (ip), vehicle: saline with Tween-80
[12] = dose: 400.0 mg/kg/injection, schedule: Q01DX001 (ip), vehicle: saline with Tween-80
[13] = dose: 400.0 mg/kg/injection, schedule: Q04DX002 (ip), vehicle: saline with Tween-80

Measured: T/C

S=C(Nc1ccccc1)Nc1ccc(NC(=S)Nc2ccccc2)cc1
inactive: [1] 86 % of control | [2] 92 % of control | [3] 92 % of control | [4] 94 % of control | [5] 86 % of control

CN(C)S(=O)(=O)c1ccccc1C(O)(c1ccccc1)c1ccccc1 (tested in a mixture with another compound)
inactive: [2] 92 % of control | [3] 87 % of control | [5] 98 % of control

O=C1C=C(C2CCCCC2)C(=O)c2ccccc21
inactive: [1] 88 % of control | [2] 98 % of control | [6] 91 % of control | [3] 92 % of control | [4] 95 % of control | [5] 95 % of control

C#CC[N+](CCO)(CCO)CCCCCCCCCCCCCCCCCC
inactive: dose: 12.5 mg/kg/injection, schedule: Q04DX002 (ip), vehicle: saline with Tween-80 101 % of control | dose: 25.0 mg/kg/injection, schedule: Q04DX002 (ip), vehicle: saline with Tween-80 101 % of control | dose: 50.0 mg/kg/injection, schedule: Q04DX002 (ip), vehicle: saline with Tween-80 101 % of control

Cc1o[nH]c(=O)c1C
inactive: [1] 96 % of control | [6] 98 % of control | [4] 98 % of control

Nc1ccccc1N=Cc1cccc([N+](=O)[O-])c1
inactive: [1] 94 % of control | [2] 101 % of control | [6] 96 % of control | [3] 98 % of control | [4] 100 % of control | [5] 101 % of control

CC(=O)/C(C)=C\c1ccccc1
inactive: [1] 96 % of control | [2] 92 % of control | [6] 94 % of control | [3] 94 % of control | [4] 98 % of control | [5] 94 % of control

CC(=O)Oc1ccc2c3c(ccc2c1)CCCC3
inactive: dose: 25.0 mg/kg/injection, schedule: Q01DX009 (ip), vehicle: Klucel (hydroxypropylcellulose) (HPC) 116 % of control | dose: 50.0 mg/kg/injection, schedule: Q01DX009 (ip), vehicle: Klucel (hydroxypropylcellulose) (HPC) 93 % of control | dose: 100.0 mg/kg/injection, schedule: Q01DX009 (ip), vehicle: Klucel (hydroxypropylcellulose) (HPC) 104 % of control

O=C(/C=C(\NC1CCCCC1)C(=O)c1ccccc1)c1ccccc1
inactive: [1] 87 % of control | [6] 98 % of control | [3] 86 % of control | [4] 97 % of control | [5] 86 % of control

N#CC(=C1C=CC(=NO)C=C1)c1ccccc1
inactive: [7] 93 % of control | [1] 100 % of control | [2] 97 % of control | [6] 100 % of control | [3] 96 % of control

O=C1C2CCCC3CCCC(C(=O)N1NC1CCCCC1)C32 (stereo not given)
inactive: dose: 12.5 mg/kg/injection, schedule: Q01DX009 (ip), vehicle: saline with Tween-80 96 % of control | dose: 25.0 mg/kg/injection, schedule: Q01DX009 (ip), vehicle: saline with Tween-80 89 % of control | [7] 86 % of control | [1] 88 % of control

COC(=O)CSc1n[nH]c(=O)[nH]c1=O
inactive: dose: 12.5 mg/kg/injection, schedule: Q01DX005 (ip), vehicle: distilled water + Tween-80 97 % of control | dose: 25.0 mg/kg/injection, schedule: Q01DX005 (ip), vehicle: distilled water + Tween-80 100 % of control | dose: 50.0 mg/kg/injection, schedule: Q01DX005 (ip), vehicle: distilled water + Tween-80 103 % of control | dose: 100.0 mg/kg/injection, schedule: Q01DX005 (ip), vehicle: distilled water + Tween-80 94 % of control | dose: 200.0 mg/kg/injection, schedule: Q01DX005 (ip), vehicle: distilled water + Tween-80 92 % of control

C=C(C)[C@]12CC(C)C34OC(/C=C\C=C\CCCCCCCCC)(O[C@@H]1[C@@H]3[C@@H]1O[C@]1(CO)[C@@H](O)[C@]1(O)C(=O)C(C)=C[C@@H]41)O2 (stereo not given in full)
inactive: dose: 0.01 mg/kg/injection, schedule: Q01DX009 (ip), vehicle: distilled water + alcohol 102 % of control | dose: 0.02 mg/kg/injection, schedule: Q01DX009 (ip), vehicle: distilled water + alcohol 94 % of control | dose: 0.04 mg/kg/injection, schedule: Q01DX009 (ip), vehicle: distilled water + alcohol 100 % of control | dose: 0.09 mg/kg/injection, schedule: Q01DX009 (ip), vehicle: alcohol 95 % of control | dose: 0.09 mg/kg/injection, schedule: Q01DX009 (ip), vehicle: distilled water + alcohol 96 % of control | dose: 0.19 mg/kg/injection, schedule: Q01DX009 (ip), vehicle: alcohol 100 % of control | dose: 0.38 mg/kg/injection, schedule: Q01DX009 (ip), vehicle: alcohol 101 % of control | dose: 0.75 mg/kg/injection, schedule: Q01DX009 (ip), vehicle: alcohol 112 % of control | dose: 1.5 mg/kg/injection, schedule: Q01DX009 (ip), vehicle: alcohol 117 % of control

O=C(/C=C/c1ccccc1)NC(=S)Nc1cc(Cl)ccc1Cl
inactive: [7] 95 % of control | [8] 90 % of control | [1] 112 % of control and 98 % of control and 100 % of control | [9] 95 % of control and 102 % of control | [2] 104 % of control | [10] 100 % of control | [6] 97 % of control and 98 % of control and 105 % of control | [11] 95 % of control and 110 % of control | [3] 104 % of control | [12] 105 % of control | [4] 115 % of control and 98 % of control and 100 % of control | [13] 105 % of control and 111 % of control | [5] 106 % of control

O=C1c2ccccc2C(=O)N1CCCCN1C(=O)c2ccccc2C1=O
inactive: [8] 90 % of control | [10] 87 % of control | [12] 90 % of control

CC1CC(C)(C)N=C(CC(=O)N2Cc3cc4ccccc4nc3C2)O1 (stereo not given)
inactive: [8] 96 % of control | [10] 104 % of control | [12] 96 % of control

O=c1oc2ccc(Cl)cc2c(Nc2ccccc2)c1Cl
inactive: [8] 93 % of control | [10] 93 % of control | [12] 90 % of control

C/C=C/C=C(\CC)C(=O)OCC
inactive: [8] 97 % of control | [10] 97 % of control | [12] 86 % of control

N#CCCCN1CCCCCC1
inactive: [2] 97 % of control

Cc1nc(C#N)c(N)nc1Cl
inactive: dose: 100.0 mg/kg/injection, schedule: Q04DX002 (ip), vehicle: Klucel (hydroxypropylcellulose) (HPC) 109 % of control | dose: 200.0 mg/kg/injection, schedule: Q04DX002 (ip), vehicle: Klucel (hydroxypropylcellulose) (HPC) 91 % of control | dose: 400.0 mg/kg/injection, schedule: Q04DX002 (ip), vehicle: Klucel (hydroxypropylcellulose) (HPC) 109 % of control

CCN(CC)CCCCNc1ccc(NCCCCN(CC)CC)c2c1C(=O)c1ccccc1C2=O
inactive: dose: 25.0 mg/kg/injection, schedule: Q01DX009 (ip), vehicle: saline 109 % of control | dose: 50.0 mg/kg/injection, schedule: Q01DX009 (ip), vehicle: saline 90 % of control | dose: 100.0 mg/kg/injection, schedule: Q01DX009 (ip), vehicle: saline 95 % of control

CCCCCCCCCCOc1ccc(Cl)cc1Cl
inactive: [9] 101 % of control | [11] 101 % of control | [13] 90 % of control

C=C(Cl)C(C)(C)C
inactive: dose: 25.0 mg/kg/injection, schedule: Q01DX001 (ip), vehicle: saline 98 % of control | dose: 50.0 mg/kg/injection, schedule: Q01DX001 (ip), vehicle: saline 104 % of control | dose: 100.0 mg/kg/injection, schedule: Q01DX001 (ip), vehicle: saline 100 % of control

CCC12CCCN3CCc4c(n(c5ccccc45)C(O)(C(=O)OC)C1)C32 (stereo not given)
inactive: dose: 5.0 mg/kg/injection, schedule: Q01DX001 (ip), vehicle: saline 108 % of control | dose: 10.0 mg/kg/injection, schedule: Q01DX001 (ip), vehicle: saline 101 % of control | dose: 20.0 mg/kg/injection, schedule: Q01DX001 (ip), vehicle: saline 102 % of control | dose: 40.0 mg/kg/injection, schedule: Q01DX001 (ip), vehicle: saline 101 % of control
